Measurements taken from PubChem BioAssay (NCI).
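Results reflect a 48-hour exposure of cells in 96-well plates to compound at five concentrations. At the GI50, growth is halved. The concentration for full growth arrest is given as TGI.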

Key:
Test in all cases: NCI anticancer screen, dose series, 48 h
MCF7 breast = system: MCF7 breast
CCRF-CEM leukemia = system: CCRF-CEM leukemia
HCT-15 colon = system: HCT-15 colon
A549 NSCLC = system: A549 NSCLC
K-562 leukemia = system: K-562 leukemia
NCI/ADR-RES ovarian = system: NCI/ADR-RES ovarian
HOP-92 NSCLC = system: HOP-92 NSCLC
KM12 colon = system: KM12 colon
OVCAR-4 ovarian = system: OVCAR-4 ovarian
HL-60(TB) leukemia = system: HL-60(TB) leukemia

`Nc1c(C(=O)N/N=C/c2ccc(-c3cc(Cl)c(Cl)cc3Cl)o2)cnn1-c1ccnc2c(C(F)(F)F)cccc12` gave a GI50 (MCF7 breast) of 3.42 µM, a TGI (MCF7 breast) of over 100 µM and a GI50 (CCRF-CEM leukemia) of 3.9 µM. It also gave a TGI (CCRF-CEM leukemia) of over 100 µM, a GI50 (HCT-15 colon) of 3.43 µM and a TGI (HCT-15 colon) of over 100 µM. For the same compound, the GI50 (A549 NSCLC) was 4.3 µM, the TGI (A549 NSCLC) was over 100 µM and the GI50 (K-562 leukemia) was 3 µM. The TGI (K-562 leukemia) was over 100 µM, the GI50 (NCI/ADR-RES ovarian) was 3.58 µM and the TGI (NCI/ADR-RES ovarian) was 87.9 µM. It also gave a GI50 (HOP-92 NSCLC) of 2.57 µM, a TGI (HOP-92 NSCLC) of 7 µM and a GI50 (KM12 colon) of 3.83 µM. For the same compound, the TGI (KM12 colon) was over 100 µM, the GI50 (OVCAR-4 ovarian) was 2.6 µM and the TGI (OVCAR-4 ovarian) was 9.4 µM. The GI50 (HL-60(TB) leukemia) was 3.18 µM and the TGI (HL-60(TB) leukemia) was over 100 µM.
